From paper PMC6508934, “Structural basis for mammalian nucleotide sugar transport” (eLife, 2019)
Where a chain is given by its changes, count along the chain named. “And” between values parts separate entries of the source, which are not always exact repeats. Identical values can stand only once.

Columns and labels:
[1] = target: T1, mCST∆C (Mus musculus, UniProt Q61420); assay: Scintillation proximity binding assay (SPA), displacement of 30 nM [3H]CMP; conditions: full SPA titration against 30 nM [3H]CMP
T1 construct: modifying the full-length construct using site-directed mutagenesis to remove the last 15 residues (322-336); made in house; host or cells: Pichia pastoris
T1 sequence (Q61420 1-321): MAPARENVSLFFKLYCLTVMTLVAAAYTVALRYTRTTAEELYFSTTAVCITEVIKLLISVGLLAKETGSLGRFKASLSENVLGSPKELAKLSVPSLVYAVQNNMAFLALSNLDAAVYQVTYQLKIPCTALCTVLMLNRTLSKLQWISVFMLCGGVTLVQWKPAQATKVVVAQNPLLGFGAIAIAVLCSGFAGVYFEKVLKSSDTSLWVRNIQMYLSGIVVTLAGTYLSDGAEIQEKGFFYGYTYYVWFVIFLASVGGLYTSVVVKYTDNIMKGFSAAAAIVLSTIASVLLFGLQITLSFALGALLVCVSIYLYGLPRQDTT
Method: Figure 1. Functional properties of mCST. (A) Purified, detergent-solubilized mCST was bound to SPA beads and the indicated compound was titrated against 30 nM [^3H]CMP to determine its affinity. Solid symbols denote titrations done with mCST and the open symbols are for mCST∆C. (B) Time course of 30 µM CMP-Sia uptake for purified mCST reconstituted into lipid vesicles with (black) or without (red) 300 µM CMP inside the vesicles. […] (C) The initial velocity of CMP-Sia uptake for either mCST (solid circles) or mCST∆C (open circles) reconstituted into CMP-filled vesicles is plotted as a function of substrate concentration to determine the Km and Vmax for transport. In all panels, the symbols show the mean ± standard error of the mean (SEM) for n = 2, except for the CMP titrations in (A), and the titration for mCST in (C) where n = 4. Figure 1—figure supplement 1. Description of SLC35 proteins. (A) Diagram of the nucleotide-sugar transporter (NST) transport cycle. Nucleotide sugars are first synthesized in the cytoplasm (or nucleus for CMP-Sia). They are then transported into the Golgi lumen by NSTs (blue box). A large family of glycosyltransferase enzymes transfers the sugar to a glycan acceptor, leaving behind the nucleotide monophosphate (NMP), which is then transported back to the cytoplasm by the NST. (B) A list of proteins in the SLC35 family with a known function and the associated nucleotide sugar(s) that they transport. SLC35B2 and SLC35B3 are listed for completeness even though they transport PAPS, the substrate used in sulfonation reactions inside the Golgi. In mammals, mannose (Man) is only present in the oligosaccharide precursor that is synthesized in the cytoplasm and then transported across the ER membrane, by a family of transporters distinct from NSTs, before being added to nascent polypeptides to form the base for N-linked glycans. […] (C) The structural formulas of the nucleotide phosphate (left) and sugar (right) moieties of nucleotide sugars are shown. The ‘‘~” symbol indicates the bond that links the two moieties. […]

[2] = tested on: CST; conditions: cited from earlier work
[3] = tested on: UDP-GlcNAc transporter; design: method as in Waldman and Rudnick, 1990; conditions: monoanionic UMP compared to dianionic UMP; ref Waldman and Rudnick, 1990; cited from earlier work
[4] = target: T2, mCST (Mus musculus, UniProt Q61420); assay: Scintillation proximity binding assay (SPA), displacement of 30 nM [3H]CMP; design: Full-length mCST cDNA was synthesized (Bio Basic) and subcloned into the Pichia pastoris expression vector pPICZ; made in house; host or cells: Pichia pastoris
T2 sequence (Q61420 1-336): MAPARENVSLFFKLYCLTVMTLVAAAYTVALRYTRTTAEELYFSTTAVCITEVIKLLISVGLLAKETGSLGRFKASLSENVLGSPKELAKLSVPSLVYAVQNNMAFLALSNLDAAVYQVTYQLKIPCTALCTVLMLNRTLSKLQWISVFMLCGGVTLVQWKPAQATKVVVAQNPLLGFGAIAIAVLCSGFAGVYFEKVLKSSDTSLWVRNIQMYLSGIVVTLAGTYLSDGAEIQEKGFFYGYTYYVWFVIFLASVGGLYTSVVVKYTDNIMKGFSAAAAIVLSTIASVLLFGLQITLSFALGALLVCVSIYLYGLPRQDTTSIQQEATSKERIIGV
Method: Figure 1. Functional properties of mCST. (A) Purified, detergent-solubilized mCST was bound to SPA beads and the indicated compound was titrated against 30 nM [^3H]CMP to determine its affinity. Solid symbols denote titrations done with mCST and the open symbols are for mCST∆C. (B) Time course of 30 µM CMP-Sia uptake for purified mCST reconstituted into lipid vesicles with (black) or without (red) 300 µM CMP inside the vesicles. […] (C) The initial velocity of CMP-Sia uptake for either mCST (solid circles) or mCST∆C (open circles) reconstituted into CMP-filled vesicles is plotted as a function of substrate concentration to determine the Km and Vmax for transport. In all panels, the symbols show the mean ± standard error of the mean (SEM) for n = 2, except for the CMP titrations in (A), and the titration for mCST in (C) where n = 4. Figure 1—figure supplement 1. Description of SLC35 proteins. (A) Diagram of the nucleotide-sugar transporter (NST) transport cycle. Nucleotide sugars are first synthesized in the cytoplasm (or nucleus for CMP-Sia). They are then transported into the Golgi lumen by NSTs (blue box). A large family of glycosyltransferase enzymes transfers the sugar to a glycan acceptor, leaving behind the nucleotide monophosphate (NMP), which is then transported back to the cytoplasm by the NST. (B) A list of proteins in the SLC35 family with a known function and the associated nucleotide sugar(s) that they transport. SLC35B2 and SLC35B3 are listed for completeness even though they transport PAPS, the substrate used in sulfonation reactions inside the Golgi. In mammals, mannose (Man) is only present in the oligosaccharide precursor that is synthesized in the cytoplasm and then transported across the ER membrane, by a family of transporters distinct from NSTs, before being added to nascent polypeptides to form the base for N-linked glycans. […] (C) The structural formulas of the nucleotide phosphate (left) and sugar (right) moieties of nucleotide sugars are shown. The ‘‘~” symbol indicates the bond that links the two moieties. In mammals, two types of sialic acid may be transported into the Golgi: N-acetylneuraminic acid (Neu5Ac) or N-glycolylneuraminic acid (Neu5Gc). The ring atoms for the nucleobases and Neu5Ac and Gal are labeled. [drawing 1] Figure 1—figure supplement 2. Sequence alignment of mCST with other SLC35 and DMT proteins. The two letter prefix for each sequence name indicates the species as follows: mm: Mus musculus; hs: Homo sapiens; sc: Saccharomyces cerevisiae; sn: Starkeya novella; gs: Galdieria sulphuraria. […] The labeled yellow bars under the sequences indicate the extent of each TM. The interfacial alpha helix (IH) connecting TMs 2 and 3 is also indicated. [drawing 2] Figure 1—figure supplement 3.

[5] = target: T2, mCST; assay: Intrinsic tryptophan fluorescence quenching assay
[6] = target: T3, mCST (W247L) (Mus musculus, UniProt Q61420, W247L); assay: SPA two-point CMP binding
T3 sequence (Q61420 1-336 W247L): T2 sequence (Q61420 1-336) with W247L

[7] = target: T4, mCST (W145L) (Mus musculus, UniProt Q61420, W145L); assay: SPA two-point CMP binding
T4 sequence (Q61420 1-336 W145L): T2 sequence (Q61420 1-336) with W145L

[8] = tested on: mCST Trp207 mutants; assay: Intrinsic tryptophan fluorescence quenching assay; conditions: W207L and W207F mutants
[9] = target: T1, mCST∆C; assay: Intrinsic tryptophan fluorescence quenching assay; format: binding; conditions: fit of tryptophan fluorescence quenching, read-out: Kd (Trp-FL)
[10] = no reference given; cited from earlier work
[11] = target: T3, mCST (W247L); assay: Intrinsic tryptophan fluorescence quenching assay
[12] = target: T5, mCST (W160L) (Mus musculus, UniProt Q61420, W160L); assay: SPA two-point CMP binding
T5 sequence (Q61420 1-336 W160L): T2 sequence (Q61420 1-336) with W160L

[13] = target: T6, mCST (W207L) (Mus musculus, UniProt Q61420, W207L); assay: SPA two-point CMP binding
T6 sequence (Q61420 1-336 W207L): T2 sequence (Q61420 1-336) with W207L

[14] = HPLC analysis of CMP-Sia hydrolysis in aqueous buffer; format: physicochemical; conditions: AnP-treated CMP-Sia, AnP removed, pH 7.5 buffer, room temperature
[15] = target: T4, mCST (W145L); assay: Intrinsic tryptophan fluorescence quenching assay
[16] = target: T5, mCST (W160L); assay: Intrinsic tryptophan fluorescence quenching assay
[17] = target: T7, mCST (W207F) (Mus musculus, UniProt Q61420, W207F); assay: SPA two-point CMP binding
T7 sequence (Q61420 1-336 W207F): T2 sequence (Q61420 1-336) with W207F

In the case of `O=c1ccn([C@@H]2O[C@H](COP(=O)(O)O)[C@@H](O)[C@H]2O)c(=O)[nH]1` [UMP, Uridine 5′-monophosphate], the Kd [1] is listed as 1620 ± 1120 µM, the “Fold higher Ki for inhibiting CMP-Sia transport (versus CMP)” value ([2]; ref Chiaramonte et al., 2001) is listed as 20 fold and the “Substrate quality for UDP-GlcNAc transporter (in words)” value [3] is listed as “poor substrate”.

`Nc1nc2c(ncn2[C@@H]2O[C@H](COP(=O)(O)O)[C@@H](O)[C@H]2O)c(=O)[nH]1` [GMP, Guanosine 5′-monophosphate] gave a Kd [1] of 5380 ± 1150 µM.

For `CC(=O)N[C@H]1[C@H]([C@H](O)[C@H](O)CO)OC(O)(C(=O)O)C[C@@H]1O` (stereo partly drawn) [Sia, sialic acid], the “Competitive inhibition of CMP-Sia transport (in words)” value ([2]; ref Carey et al., 1980, Perez and Hirschberg, 1987) is given as “does not competitively inhibit CMP-Sia transport” and the “Binding to mCST (in words)” value ([4]; SPA titration, Figure 1A) is given as “does not bind mCST”.

In the case of `Nc1ccn([C@@H]2O[C@H](COP(=O)(O)O)[C@@H](O)[C@H]2O)c(=O)n1` [CMP, Cytidine 5'-monophosphate], the Kd [1] is reported as 1.8 ± 0.4 µM, the Kd [5] is reported as 2.9 ± 1.1 µM and the “Quenching of intrinsic tryptophan fluorescence on CMP binding (in words)” value ([5]; wild-type mCST) is reported as “significantly quenched”. For the same compound, the Kd [6] was 2.4 ± 1.5 µM, the Kd [7] was 0.8 ± 0.3 µM and the “Quenching of intrinsic tryptophan fluorescence by CMP (in words)” value [8] was “lack of any quenching”. For the same compound, the Kd [9] was 11.1 ± 2.9 µM, the “Highest pKa of the phosphate group” value [10] was 6.3 and the Kd [11] was 7.4 ± 2.6 µM. The Kd [12] was 1.6 ± 0.4 µM, the Kd [13] was 1.5 ± 0.4 µM and the “Rate of CMP generation from CMP-Sia hydrolysis” value [14] was 0.0051 ± 0.00014 %/min and 0.0051 %/min. It also gave a Kd [15] of 3.3 ± 1 µM, a Kd [16] of 11.9 ± 2.4 µM and a Kd [17] of 3.8 ± 1.5 µM. The “Fold higher affinity of CMP towards mCST than CMP-Sia” value ([4]; CMP versus CMP-Sia, Figure 1A) was ~ 100 fold, the Kd ([4]; crude estimation from two-point SPA data (30 nM [3H]CMP ± 5 µM unlabeled CMP), mCST, read-out: Kd (SPA 2-point)) was 5.5 ± 1.6 µM and the Kd ([4]; full SPA titration against 30 nM [3H]CMP, purified detergent-solubilized mCST, read-out: Kd (SPA titration)) was 6.3 ± 1.2 µM.
